According to patent US20110105393A1, “METHODS FOR PROMOTING STEM CELL PROLIFERATION AND SURVIVAL” (priority 2007, published 2011):

Columns and labels:
Hes3 = Hes3 protein immuno-staining in fetal NSC cultures; assay type: cell-based, mouse; conditions: 2 day treatment
Protocol: (§1) Cell culture: E13.5 cortical embryonic mouse CNS stem cells were grown as previously described (Johe, et al., Genes Dev 10, 3129-40, 1996). Cells were expanded in serum-free DMEM/F12 medium with N2 supplement and FGF2 (20 ng/ml) for 5 days under 5% oxygen conditions and were re-plated fresh or from frozen stocks at 1,000-10,000 cells per cm^2. FGF2 was included throughout the studies, unless otherwise stated. Adult rat (3-6 months old) or adult mouse (2-4 months old) SVZ NSC cultures were grown in the same medium as the fetal cultures.
Hes3 mRNA is present in fetal NSC cultures under conditions that support their self-renewal but CNTF-induced differentiation (Bonni, A. et al., Science 278, 477-83, 1997; Rajan & McKay, J Neurosci 18, 3620-9, 1998): downregulates Hes3 message (Androutsellis-Theotokis, A. et al., Nature 442, 823-6, 2006). Knockout studies have shown a role of Hes3 in self-renewal (Hatakeyama, J. et al., Development 131, 5539-50, 2004). It was investigated if Hes3 mediates stem cell functions in vitro to assess its use as a functional NSC marker. Fetal (E13.5) cortical tissue was dissociated and magnetic sorting was used to isolate a cell population that expressed AC133, an established marker of NSCs (Uchida, N. et al., Proc Natl Acad Sci USA 97, 14720-5, 2000). […]

adult rat SVZ NSCs = experiment: Expansion of adult rat SVZ NSC / neural precursor cultures; assay type: cell-based
Protocol: as §1
Pharmacological treatments: Unless otherwise stated, the following concentrations were used: Dll4 and Ang-2 (in vitro, 500 ng/ml; in vivo 12.5 μg as a single injection), FGF2 (in vitro, 20 ng/ml), JAK inhibitor (in vitro, 200 nM; in vivo, 250 ng as a single injection), insulin (in vitro, 25 μg/ml; in vivo, 40 μg as a single injection), DAPT (1 μM), Fluorogold (0.5 μg). For the survival assays, compounds were added daily and Notch ligands every 2 days for the duration of the experiment. For the effects of kinase inhibitors on Notch activation, cells were pre-incubated for 1 h prior to Notch activation.
as §1, with “Culture:” for “culture:”, “(Johe” for “(Johe,”, “3129,” for “3129-40,”, “our experiments,” for “the studies,”, “Neural Stem Cell (NSC)” for “NSC”
Pharmacological treatments: Unless otherwise stated, we used the following concentrations: Dll4 and Ang2 (in vitro, 500 ng/ml; in vivo 12.5 μg as a single injection), FGF2 (in vitro, 20 ng/ml), JAK inhibitor (in vitro, 200 nM; in vivo, 250 ng as a single injection), insulin (in vitro, 25 μg/ml; in vivo, 40 μg as a single injection), DAPT (1 μM), Fluorogold (0.5 μg). […]

| Substance | Hes3 protein expression (Hes3) | generation of adult rat SVZ NSCs in vitro (adult rat SVZ NSCs; 0.5 μg/ml, 5-d (FIG. 2b)) | colony formation and overall cell numbers (adult rat SVZ NSCs; adult rat SVZ NSC cultures treated with Dll4) | increase in the numbers of proliferating cells (adult rat SVZ NSCs; cells from adult SVZ in culture, added to Dll4, insulin and FGF2, p=2.15×10^−5 (FIG. 10b)) [fold] |
| --- | --- | --- | --- | --- |
| Dll4: Notch ligand Delta-like 4; mouse Dll4 (1389-D4) from R&D | maintained | – | – | – |
| Ang-2: human angiopoietin-2 (623-AN) from R&D; antagonist for angiopoietin-1 at Tie2 | – | profoundly increased | significantly increased | 7 |
